In publication PMC11257323, “Thermostabilization of a fungal laccase by entrapment in enzymatically synthesized levan nanoparticles” (PLOS ONE, 2024):

Target: T1, LevS△N70Tn38 (Leuconostoc mesenteroides, UniProt Q1L7R6)
T1 construct: truncated levansucrase LevS△N70Tn38 (name implies N-terminal 70-residue deletion); pET-22b, expressed in E. coli BL21, DEAE-purified
Test: DNS reducing-sugar assay
Format: biochemical
Conditions: 292 mM sucrose; 50 mM acetate pH 6.0; 1 mM CaCl2; 30°C

T1 sequence (Q1L7R6 entry or part of it): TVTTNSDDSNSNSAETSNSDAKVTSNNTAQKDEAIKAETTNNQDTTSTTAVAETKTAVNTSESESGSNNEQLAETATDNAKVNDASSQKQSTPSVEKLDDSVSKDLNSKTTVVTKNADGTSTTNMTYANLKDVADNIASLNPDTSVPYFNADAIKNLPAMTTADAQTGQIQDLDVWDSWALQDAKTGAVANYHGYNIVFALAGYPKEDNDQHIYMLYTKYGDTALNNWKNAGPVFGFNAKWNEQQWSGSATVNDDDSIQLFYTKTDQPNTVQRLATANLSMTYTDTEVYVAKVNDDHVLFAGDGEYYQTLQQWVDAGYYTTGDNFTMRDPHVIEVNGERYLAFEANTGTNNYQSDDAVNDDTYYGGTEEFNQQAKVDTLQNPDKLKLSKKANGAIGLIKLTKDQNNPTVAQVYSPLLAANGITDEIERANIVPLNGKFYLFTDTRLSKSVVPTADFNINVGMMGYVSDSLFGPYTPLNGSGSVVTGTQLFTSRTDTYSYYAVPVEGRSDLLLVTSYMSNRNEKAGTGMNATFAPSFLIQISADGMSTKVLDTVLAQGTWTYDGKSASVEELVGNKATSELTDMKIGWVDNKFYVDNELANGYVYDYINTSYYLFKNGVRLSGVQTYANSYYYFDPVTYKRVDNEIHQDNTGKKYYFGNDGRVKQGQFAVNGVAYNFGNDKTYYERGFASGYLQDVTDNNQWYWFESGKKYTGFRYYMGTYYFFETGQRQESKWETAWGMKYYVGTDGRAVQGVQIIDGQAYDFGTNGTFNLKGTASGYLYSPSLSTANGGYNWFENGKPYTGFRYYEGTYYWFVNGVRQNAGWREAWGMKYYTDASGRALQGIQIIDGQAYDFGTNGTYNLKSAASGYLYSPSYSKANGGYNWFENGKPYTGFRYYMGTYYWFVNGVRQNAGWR

OC[C@H]1O[C@@](CO)(O[C@H]2O[C@H](CO)[C@@H](O)[C@H](O)[C@H]2O)[C@@H](O)[C@@H]1O [sucrose]
DNS reducing-sugar assay: LevS△N70Tn38 activity was determined by quantification of released reducing sugars from sucrose
